Experimental data reported in patent US6136823A, “Pyridonecarboxylic acid derivatives or salts thereof and drugs containing the same as the active ingredient” (Wakunaga Pharmaceutical Co., Ltd., priority 1996, dated 2000).
Values after ≈ are worked out from the molar mass of the structure shown. Read-outs that look alike come from different tables or passages of the source.

Legend:
[1] = tested on: S. epidermidis IFO 12293; assay: Antibacterial action, MIC against standard strain S. epidermidis IFO 12293; format: cell-based; settings: Staphylococcus epidermidis
Method: (§1) The minimum inhibitory concentrations (MIC; μg/ml) of specimen compounds against standard strains [S. aureus 209P (S.a.), S. epidermidis IFO 12293 (S.e.) and P. aeruginosa IFO 3445 (P.a.)] were determined in accordance with the standard method (CHEMOTHERAPY, 29(1), 76, 1981) prescribed by The Japan Chemotherapeutic Association.

[2] = tested on: P. aeruginosa IFO 3445; assay: Antibacterial action, MIC against standard strain P. aeruginosa IFO 3445; format: cell-based; settings: Pseudomonas aeruginosa
Method: as §1

[3] = tested on: S. aureus 209P; assay: Antibacterial action, MIC against standard strain S. aureus 209P (standard method of the Japan Chemotherapeutic Association); format: cell-based; settings: Staphylococcus aureus, read-out: MIC S.a.
Method: as §1

[4] = Urinary recovery rate upon oral administration to rats; format: in vivo, male SD rats; settings: urine, rat, 20 mg/kg or 10 mg/kg, paper disk method; for dose excreted at 6 h: 0-6 hours; for dose excreted at 24 h: 6-24 hours
Method: The recovery rates in both urine and bile of compounds according to the present invention upon oral administration to rats were determined to evaluate their absorbability and excretory behavior. (a) Urinary Recovery Rate Male SD rats aged 6 weeks fasted overnight were forced to orally administer a 0.5% methyl cellulose suspension (20 mg/10 ml/kg or 10 mg/10 ml/kg) of each of specimen compounds using a peroral sound. Urine was collected twice in the course of from 0 up to 6 hours and from 6 up to 24 hours after the administration. The concentration of the specimen compound in the urine was determined by a paper disk method using Bacillus subtilis ATCC 6633 as a tester strain to find its recovery rate in urine.

[5] = Biliary recovery rate upon oral administration to rats; format: in vivo, male SD rats; settings: bile, rat, 20 mg/kg or 10 mg/kg, 0-24 hours, after hydrolysis with the alkali
Method: (§2) The recovery rates in both urine and bile of compounds according to the present invention upon oral administration to rats were determined to evaluate their absorbability and excretory behavior.
(2) Biliary Recovery Rate
(§3) A polyethylene tube was inserted into the common bile ducts of male SD rats aged 6 weeks fasted overnight under etherization. After the anesthetic wore away, the rats were forced to orally administer each of the specimen compounds in the same manner as in the item (a) to collect bile till 24 hours after the administration. The concentration of the specimen compound in the bile was determined in the same manner as in the item (a) after hydrolysis with an alkali (0.1N, NaOH, 37° C., 1 hour) or without being subjected to any treatment, thereby finding its recovery rate in bile.

[6] = Total recovery rate in urine and bile upon oral administration to rats; format: in vivo, male SD rats; settings: rat, 20 mg/kg or 10 mg/kg, urine plus bile, 0-24 hours
Method: as §2
Male SD rats aged 6 weeks fasted overnight were forced to orally administer a 0.5% methyl cellulose suspension (20 mg/10 ml/kg or 10 mg/10 ml/kg) of each of specimen compounds using a peroral sound. Urine was collected twice in the course of from 0 up to 6 hours and from 6 up to 24 hours after the administration. The concentration of the specimen compound in the urine was determined by a paper disk method using Bacillus subtilis ATCC 6633 as a tester strain to find its recovery rate in urine.
as §3

[7] = IFO12293, S. epidermidis IFO 12293, read-out: MIC S.e.
[8] = IFO3445, P. aeruginosa IFO 3445, read-out: MIC P.a.

C=CCNc1c(F)cc2c(=O)c(C(=O)O)cn(-c3nc(N)c(F)cc3F)c2c1Cl [Example 77, 7-Allylamino-1-(6-amino-3,5-difluoropyridin-2-yl)-8-chloro-6-fluoro-4-oxo-1,4-dihydroquinoline-3-carboxylic Acid]
MIC [1, 7]: 0.013 µg/mL (≈ 0.0306 µM)
MIC [2, 8]: 0.39 µg/mL (≈ 0.918 µM)
MIC ([3]; S. aureus 209P): 0.013 µg/mL (≈ 0.0306 µM)

Nc1cc(-n2cc(C(=O)O)c(=O)c3cc(F)c(N4CC(N)C4)c(Cl)c32)c(F)cc1F [Referential compound, 7(3-Aminoazetidin-1-yl)-1-(5-amino-2,4-difluoro-phenyl)-8-chloro-6-fluoo-4-oxo-1,4-dihydroquinoline-3-carboxylic acid, reference compound]
dose excreted at 6 h [4]: 7.6%
dose excreted at 24 h [4]: 2.7%
dose excreted at 24 h [5]: 11.1%
dose excreted at 24 h [6]: 21.5%

CNc1c(F)c(N)c2c(=O)c(C(=O)O)cn(-c3cc(N)c(F)cc3F)c2c1Cl [Example 70, 5-Amino-1-(5-amino-2,4-difluorophenyl)-8-chloro-6-fluoro-7-methylamino-4-oxo-1,4-dihydroquinoline-3-carboxylic Acid]
MIC [1, 7]: 0.025 µg/mL (≈ 0.0606 µM)
MIC [2, 8]: 0.2 µg/mL (≈ 0.485 µM)
MIC ([3]; S. aureus 209P): 0.013 µg/mL (≈ 0.0315 µM)

CNc1c(F)c(C)c2c(=O)c(C(=O)O)cn(-c3cc(N)c(F)cc3F)c2c1Cl [Example 56, 1-(5-Amino-2,4-difluorophenyl)-8-chloro-6-fluoro-5-methyl-7-methylamino-4-oxo-1,4-dihydroquinoline-3-carboxylic Acid]
MIC [1, 7]: 0.013 µg/mL (≈ 0.0316 µM)
MIC [2, 8]: 0.2 µg/mL (≈ 0.486 µM)
MIC ([3]; S. aureus 209P): 0.006 µg/mL (≈ 0.0146 µM)

CNc1c(F)c(C)c2c(=O)c(C(=O)O)cn(-c3cc(N)c(F)cc3F)c2c1C [Example 59, 1-(5-Amino-2,4-difluorophenyl)-6-fluoro-5,8-dimethyl-7-methylamino-4-oxo-1,4-dihydroquinoline-3-carboxylic Acid]
MIC [1, 7]: 0.013 µg/mL (≈ 0.0332 µM)
MIC [2, 8]: 0.39 µg/mL (≈ 0.997 µM)
MIC ([3]; S. aureus 209P): 0.006 µg/mL (≈ 0.0153 µM)

CNc1c(F)cc2c(=O)c(C(=O)O)cn(-c3nc(N)c(F)cc3F)c2c1Br [Example 30, 1-(6-Amino-3,5-difluoropyridin-2-yl)-8-bromo-6-fluoro-7-methylamino-4-oxo-1,4-dihydroquinoline-3-carboxylic Acid]
MIC [1, 7]: 0.025 µg/mL (≈ 0.0564 µM)
MIC [2, 8]: 0.78 µg/mL (≈ 1.76 µM)
MIC ([3]; S. aureus 209P): 0.006 µg/mL (≈ 0.0135 µM)

CNc1c(F)c(O)c2c(=O)c(C(=O)O)cn(-c3cc(N)c(F)cc3F)c2c1C [Example 98, 1-(5-Amino-2,4-difluorophenyl)-6-fluoro-5-hydroxy-8-methyl-7-methylamino-4-oxo-1,4-dihydroquinoline-3-carboxylic Acid]
MIC [1, 7]: 0.013 µg/mL (≈ 0.0331 µM)
MIC [2, 8]: 0.39 µg/mL (≈ 0.992 µM)
MIC ([3]; S. aureus 209P): 0.013 µg/mL (≈ 0.0331 µM)

NC1CCN(c2nc3c(cc2F)c(=O)c(C(=O)O)cn3-c2ccc(F)cc2F)C1 (stereo not drawn) [Tosufloxacin, reference compound]
dose excreted at 6 h [4]: 19%
dose excreted at 24 h [4]: 12.3%
dose excreted at 24 h [5]: 9.2%
MIC [1, 7]: 0.2 µg/mL (≈ 0.495 µM)
MIC [2, 8]: 0.39 µg/mL (≈ 0.965 µM)
dose excreted at 24 h [6]: 40.5%
MIC ([3]; S. aureus 209P): 0.05 µg/mL (≈ 0.124 µM)

C[C@H]1COc2c(N3CCN(C)CC3)c(F)cc3c(=O)c(C(=O)O)cn1c23 [Levofloxacin, reference compound]
dose excreted at 6 h [4]: 21.2%
dose excreted at 24 h [4]: 13.7%
dose excreted at 24 h [5]: 48.3%
MIC [1, 7]: 0.39 µg/mL (≈ 1.08 µM)
MIC [2, 8]: 0.78 µg/mL (≈ 2.16 µM)
dose excreted at 24 h [6]: 83.2%
MIC ([3]; S. aureus 209P): 0.2 µg/mL (≈ 0.553 µM)

CNc1c(F)cc2c(=O)c(C(=O)O)cn(-c3nc(N)c(F)cc3F)c2c1Cl [Example 28, 1-(6-Amino-3,5-difluoropyridin-2-yl)-8-chloro-6-fluoro-7-methylamino-4-oxo-1,4-dihydroquinoline-3-carboxylic Acid]
MIC [1, 7]: 0.025 µg/mL (≈ 0.0627 µM)
MIC [2, 8]: 0.39 µg/mL (≈ 0.978 µM)
MIC ([3]; S. aureus 209P): 0.006 µg/mL (≈ 0.015 µM)

Nc1cc(-n2cc(C(=O)O)c(=O)c3cc(F)c(N)c(Cl)c32)c(F)cc1F [Example 11, 7-Amino-1-(5-amino-2,4-difluorophenyl)-8-chloro-6-fluoro-4-oxo-1,4-dihydroquinoline-3-carboxylic Acid]
dose excreted at 6 h [4]: 9.7%
dose excreted at 24 h [4]: 13.7%
dose excreted at 24 h [5]: 90%
MIC [1, 7]: 0.05 µg/mL (≈ 0.13 µM)
MIC [2, 8]: 0.2 µg/mL (≈ 0.521 µM)
dose excreted at 24 h [6]: 113%
MIC ([3]; S. aureus 209P): 0.013 µg/mL (≈ 0.0339 µM)

CNc1c(F)cc2c(=O)c(C(=O)O)cn(-c3cc(N)c(F)cc3F)c2c1Cl [Example 14, 1-(5-Amino-2,4-difluorophenyl)-8-chloro-6-fluoro-7-methylamino-4-oxo-1,4-dihydroquinoline-3-carboxylic Acid]
dose excreted at 6 h [4]: 1.2%
dose excreted at 24 h [4]: 2.6%
dose excreted at 24 h [5]: 103%
MIC [1, 7]: 0.025 µg/mL (≈ 0.0629 µM)
MIC [2, 8]: 0.2 µg/mL (≈ 0.503 µM)
dose excreted at 24 h [6]: 107%
MIC ([3]; S. aureus 209P): 0.013 µg/mL (≈ 0.0327 µM)

Cc1c(N)c(F)cc2c(=O)c(C(=O)O)cn(-c3cc(N)c(F)cc3F)c12 [Example 12, 7-Amino-1-(5-amino-2,4-difluorophenyl)-6-fluoro-8-methyl-4-oxo-1,4-dihydroquinoline-3-carboxylic Acid]
dose excreted at 6 h [4]: 4.8%
dose excreted at 24 h [4]: 10.8%
dose excreted at 24 h [5]: 81.7%
MIC [1, 7]: 0.05 µg/mL (≈ 0.138 µM)
MIC [2, 8]: 0.1 µg/mL (≈ 0.275 µM)
dose excreted at 24 h [6]: 97.3%
MIC ([3]; S. aureus 209P): 0.013 µg/mL (≈ 0.0358 µM)

CNc1c(F)cc2c(=O)c(C(=O)O)cn(-c3cc(N)c(F)cc3F)c2c1C [Example 16, 1-(5-Amino-2,4-difluorophenyl)-6-fluoro-8-methyl-7-methylamino-4-oxo-1,4-dihydroquinoline-3-carboxylic Acid]
MIC [1, 7]: 0.05 µg/mL (≈ 0.133 µM)
MIC [2, 8]: 0.39 µg/mL (≈ 1.03 µM)
MIC ([3]; S. aureus 209P): 0.013 µg/mL (≈ 0.0345 µM)

COc1c(F)cc2c(=O)c(C(=O)O)cn(-c3cc(N)c(F)cc3F)c2c1C [Example 99, 1-(5-Amino-2,4-difluorophenyl)-6-fluoro-7-methoxy-8-methyl-4-oxo-1,4-dihydroquinoline-3-carboxylic Acid]
MIC [1, 7]: 0.05 µg/mL (≈ 0.132 µM)
MIC [2, 8]: 0.78 µg/mL (≈ 2.06 µM)
MIC ([3]; S. aureus 209P): 0.013 µg/mL (≈ 0.0344 µM)

Cc1c(NCCCO)c(F)cc2c(=O)c(C(=O)O)cn(-c3cc(N)c(F)cc3F)c12 [Example 88, 1-(5-Amino-2,4-difluorophenyl)-8-methyl-6-fluoro-7-(3-hydroxy-n-propylamino)-4-oxo-1,4-dihydroquinoline-3-carboxylic Acid]
MIC [1, 7]: 0.025 µg/mL (≈ 0.0593 µM)
MIC [2, 8]: 0.78 µg/mL (≈ 1.85 µM)
MIC ([3]; S. aureus 209P): 0.013 µg/mL (≈ 0.0309 µM)

O=C(O)c1cn(C2CC2)c2cc(N3CCNCC3)c(F)cc2c1=O [Cyprofloxacin, reference compound]
MIC ([1]; IFO12293, read-out: MIC S.e.): 0.78 µg/mL (≈ 2.35 µM)
MIC ([2]; IFO3445, read-out: MIC P.a.): 0.39 µg/mL (≈ 1.18 µM)
MIC ([3]; 209P): 0.1 µg/mL (≈ 0.302 µM)

CNc1c(F)cc2c(=O)c(C(=O)O)cn(-c3cc(N)c(F)cc3Cl)c2c1Cl [Example 19, 1-(5-Amino-2-chloro-4-fluorophenyl)-8-chloro-6-fluoro-7-methylamino-4-oxo-1,4-dihydroquinoline-3-carboxylic Acid]
MIC [1, 7]: 0.05 µg/mL (≈ 0.121 µM)
MIC [2, 8]: 0.39 µg/mL (≈ 0.942 µM)
MIC ([3]; S. aureus 209P): 0.013 µg/mL (≈ 0.0314 µM)

C[C@@H]1CN(c2c(F)c(N)c3c(=O)c(C(=O)O)cn(C4CC4)c3c2F)C[C@H](C)N1 [Sparfloxacin, reference compound]
MIC [1, 7]: 0.2 µg/mL (≈ 0.51 µM)
MIC [2, 8]: 0.78 µg/mL (≈ 1.99 µM)
MIC ([3]; S. aureus 209P): 0.05 µg/mL (≈ 0.127 µM)
